Source: patent US20240325370A1, “THERAPEUTIC REGIMENS OF A DEGRADER OF BRD9” (FOGHORN THERAPEUTICS INC., priority 2021, published 2024)
Entries after “also recorded” stand apart in the source; their conditions may differ.

Tests used:
endogenous BRD9 = target: T1, endogenous BRD9 (Homo sapiens, UniProt Q9H8M2); assay: Western blot dose response of endogenous BRD9 degradation in cancer cell lines of different lineage; format: cell-based; conditions: for potency of endogenous BRD9 degradation (western blot): 6 hours
T1 sequence (Q9H8M2 1-597): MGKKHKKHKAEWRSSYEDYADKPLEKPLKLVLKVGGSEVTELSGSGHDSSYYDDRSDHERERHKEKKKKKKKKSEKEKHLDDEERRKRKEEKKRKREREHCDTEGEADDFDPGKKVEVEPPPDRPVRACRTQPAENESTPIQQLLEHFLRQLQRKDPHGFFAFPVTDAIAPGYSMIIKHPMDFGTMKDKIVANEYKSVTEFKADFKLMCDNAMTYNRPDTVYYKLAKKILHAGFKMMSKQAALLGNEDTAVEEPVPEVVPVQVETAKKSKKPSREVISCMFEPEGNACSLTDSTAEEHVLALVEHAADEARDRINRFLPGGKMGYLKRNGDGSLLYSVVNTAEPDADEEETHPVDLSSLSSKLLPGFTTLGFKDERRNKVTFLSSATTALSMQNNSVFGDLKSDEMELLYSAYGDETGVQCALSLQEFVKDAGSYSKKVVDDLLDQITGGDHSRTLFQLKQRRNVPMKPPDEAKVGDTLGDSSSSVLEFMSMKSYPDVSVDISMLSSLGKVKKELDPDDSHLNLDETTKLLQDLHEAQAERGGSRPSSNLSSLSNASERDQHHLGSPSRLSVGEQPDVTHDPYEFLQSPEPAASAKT
Method: Compound D1 and Compound S-D1 Dose Response Experiments in Multiple Cell Lines of Different Lineage. To evaluate the efficacy of compound S-D1 ((S)-enantiomer) and compound D1 (racemic) to degrade BRD9 across different cancer lineages (listed in Table 19), dose response experiments were performed in SYO-1, EOL-1, MD-MBA-231, OVCAR8, and PC-9 cell lines. After cell treatment, BRD9 protein levels were assessed by western blot analyses.
Cells grown in flasks to log phase growth were washed with PBS and dissociated by adding TrypLE™ Express (Foghorn) or Trypsin-EDTA 0.25% (Pharmaron). Collected cells were resuspended in their respective cell culture media, counted, and seeded at the indicated cell density in 6-well plates. Two wells were allocated per sample. Plates were incubated at 37° C. with 5% CO2 overnight.
The next day, compound was added to a final concentration as indicted in FIGS. 32B, 32C, and 32D with 3-fold dilution steps, with the final DMSO content of 0.1% (v/v) matching the untreated control. After 6 hours of incubation, cells were harvested, resuspended in PBS, and centrifuged at 5,000 rpm for 5 minutes. After being washed twice with PBS, the resulting cell pellets were stored at −80° C.
Cell lines and cell treatment procedures are highlighted in Table 19 and specific details about western blot procedures are listed in Table 20. The western blot procedure was as described above.

BRD9 = target: T2, BRD9 (Homo sapiens, UniProt Q9H8M2); assay: Pharmacodynamic activity in SYO-1 xenograft model (tumor BRD9 western blot); format: in vivo, mice; design: from tissue; host or cells: SYO-1 xenograft tumours in BALB/c nude or NOD SCID mice; conditions: for BRD9 protein levels depleted by: 20% SBECD
T2 sequence (Q9H8M2 1-597): T1 sequence (Q9H8M2 1-597)
Method: Method. The SYO-1 tumor cells were maintained in vitro as adherent cells in Dulbecco's Modified Eagle Medium (DMEM) supplemented with 10% fetal bovine serum at 37° C. in an atmosphere of 5% CO2 in air. The cells growing in an exponential growth phase were harvested and counted for tumor inoculation. BALB/c Nude mice (Shanghai Lingchang biological science) were inoculated subcutaneously on the right flank with (5×10^6) in 0.1 mL of phosphate buffered saline (PBS). The treatment-(described in table 6)—was started on day 19 after tumor inoculation, when the average tumor size reached 499 mm^3.
Mice were treated with racemic D1, 1 mg/kg, i.p. for 4 weeks, mice were euthanized, and tumors collected 1, 4, 8, 24, 48 and 72-hour post last dose. Tumors were lysed with 1×RIPA lysis buffer (Boston BioProducts, BP-115D) with protease and phosphatase protein inhibitor (Roche Applied Science #04906837001 & 05892791001). Equal amount of lysate (30 ug) were loaded in 4-12% Bis-Tris Midi Protein Gels in 1×MOPS buffer; samples ran at 120 V for 120 min. Proteins was transferred to membrane (NC) with TransBlot at 250 mA for 150 minute, then membranes were blocked with Odyssey Blocking buffer for 1 hour at room temperature. Membranes were hybridized overnight in cold room with primary antibodies. Images acquired using Li-COR imaging system (Li-COR Biotechnology, Lincoln, Nebraska).
Further study. The other study examined a range of compound D1 dose levels (0.05, 0.25, 1 or 5 mg/kg) formulated in a vehicle of 20% SBECD for tumor BRD9 protein levels up to 144 hours post dose. […] BRD9 protein levels were still depleted by 83.4% and 73.2% at 120 hours (5 days) and 144 hours (6 days), respectively, after a single IV administration of 5 mg/kg of compound D1, which corresponds to ˜2.5 mg/kg of compound S-D1.

SYO-1 tumor = assay: Intermittent dosing schedules, IV, SYO-1 xenograft efficacy; format: in vivo, mice; conditions: for Tumor Size (mm^3) on Day 24: SYO-1 tumor-bearing NOD SCID mice, Mean ± SEM
Method: The objective of this study was to provide proof-of-concept of anti-tumor efficacy with intermittent dosing schedules for compound S-D1 by IV administration. Groups of female SYO-1 tumor-bearing NOD SCID mice (n=10/group) were dosed IV with vehicle, compound D1 or compound S-D1 for 24 days according to treatments and dosing schedules shown in Table 10. Compound D1 was formulated in 10% DMSO/40% PEG400/50% water and compound S-D1 was formulated in 20% SBECD in 5 mM citrate buffer, final pH was adjusted to 5 with 1 N NaOH. For the compound S-D1 treatment groups, plasma samples were collected at designated time points following the last dosing. Plasma samples were acidified to stabilize the compound right after collection and analyzed for compound S-D1 concentrations.

[1] = Interconversion between Enantiomer 1 and Enantiomer 2 in cell medium; format: physicochemical; conditions: Enantiomer 2 dosing, cell medium 37° C.; for Mean peak area ratio of Enantiomer 1 over Enantiomer 2 peak area ratio: 0.2 µM
Method: For the assessment of interconversion between Enantiomer 1 and Enantiomer 2 in cell medium, the following test was performed. […] At designated time point, aliquot (50 μL) was taken and processed by the addition of 150 μL of acetonitrile containing 0.1% formic acid and internal standard for LC/MS-MS analysis. Peak areas of both Enantiomer 1 and Enantiomer 2 were determined for each sample using a chiral specific analytical method.

[2] = 1 mg/kg BIW IV, 24 days (compound D1)
[3] = 1 mg/kg BIW IV, 24 days (compound S-D1)

With `COc1cc(-c2cn(C)c(=O)c3cnc(N4CCC4)cc23)cc(OC)c1CN1CCC(CN2CCC3(CC2)CN(c2ccc4c(c2)C(=O)N(C2CCC(=O)NC2=O)C4)C3)CC1` (racemic) [Compound D1, 3-[6-(7-[[1-([4-[6-(azetidin-1-yl)-2-methyl-1-oxo-2,7-naphthyridin-4-yl]-2,6-dimethoxyphenyl]methyl)piperidin-4-yl]methyl]-2,7-diazaspiro[3.5]nonan-2-yl)-1-oxo-3H-isoindol-2-yl]piperidine-2,6-dione] the “potency of endogenous BRD9 degradation (western blot)” value (endogenous BRD9; MDA-MB-231 (breast cancer), OVCAR8 (ovarian cancer) and EOL1 cells) was “comparable potency”, the “potency of endogenous BRD9 degradation (western blot)” value (endogenous BRD9; PC-9 (EGFR mutant lung cancer) cells) was “reduced potency” and the “tumor BRD9 protein level response” value (BRD9; 0.05, 0.25, 1 or 5 mg/kg, up to 144 hours post dose) was “robust and dose- and time-dependent”. The “BRD9 protein levels depleted by” value (BRD9; 120 hours (5 days) after a single IV administration of 5 mg/kg) was 83.4%, the “BRD9 protein levels depleted by” value (BRD9; 144 hours (6 days) after a single IV administration of 5 mg/kg) was 73.2% and the “T/C (%)” value (SYO-1 tumor; [2]) was 12.6%. The “TGI (%)” value (SYO-1 tumor; [2]) was 87.4% and the “Tumor Size (mm^3) on Day 24” value (SYO-1 tumor; 1 mg/kg BIW IV, 24 days) was 426 ± 49 mm^3.
With `COc1cc(-c2cn(C)c(=O)c3cnc(N4CCC4)cc23)cc(OC)c1CN1CCC(CN2CCC3(CC2)CN(c2ccc4c(c2)C(=O)N([C@H]2CCC(=O)NC2=O)C4)C3)CC1` (single isomer, unassigned) [Compound S-D1] the “BRD9 degradation activity when proteasome blocked” value (endogenous BRD9; with 1 μM Bortezomib, a proteasome inhibitor (FIG. 32D, EOL-1 cells)) was “largely abrogated”, the “Pharmacodynamic activity: tumor BRD9 protein level by western blot” value (BRD9; SYO-1 xenograft, BALB/c Nude mice, single dose i.v. (Table 6), listed as Enantiomer 2) was “significant activity; also recorded: degraded BRD9 up to 72 hours after a single dose; also recorded: equipotent to racemic compound D1” and the “T/C (%)” value (SYO-1 tumor; 0.05 mg/kg BIW IV, 24 days) was 58.2%. The “TGI (%)” value (SYO-1 tumor; 0.05 mg/kg BIW IV, 24 days) was 41.8%, the “Tumor Size (mm^3) on Day 24” value (SYO-1 tumor; 0.05 mg/kg BIW IV, 24 days) was 1946 ± 123 mm^3 and the “T/C (%)” value (SYO-1 tumor; [3]) was 8.1%. For the same compound, the “TGI (%)” value (SYO-1 tumor; [3]) was 91.9%, the “Tumor Size (mm^3) on Day 24” value (SYO-1 tumor; [3]) was 280 ± 37 mm^3 and the “T/C (%)” value (SYO-1 tumor; 2 mg/kg QW IV, 24 days) was 10.1%. For the same compound, the “TGI (%)” value (SYO-1 tumor; 2 mg/kg QW IV, 24 days) was 89.9%, the “Tumor Size (mm^3) on Day 24” value (SYO-1 tumor; 2 mg/kg QW IV, 24 days) was 341 ± 38 mm^3 and the tumor response (SYO-1 tumor; 0.25 or 1 mg/kg twice weekly IV, SYO-1 tumor) was “tumor stasis”. For the same compound, the “Mean peak area ratio of Enantiomer 1 over Enantiomer 2 peak area ratio” value (“Mean peak area ratio” below) ([1]; 0 h) was 0.01, the “Mean peak area ratio” value ([1]; 0.5 h) was 0.06 and the “Mean peak area ratio” value ([1]; 2 h) was 0.22. The “Mean peak area ratio” value ([1]; 6 h) was 0.60, the “% Enantiomer 2” value ([1]; 0 h) was 99% and the “% Enantiomer 2” value ([1]; 0.5 h) was 95%. For the same compound, the “% Enantiomer 2” value ([1]; 2 h) was 82% and the “% Enantiomer 2” value ([1]; 6 h) was 63%.
